# According to patent US20150283233A1, “Compositions and Methods for Enhancing Immune Responses” (Gencia Corporation, priority 2012, published 2015):
# Test system: MHC I
# Assay: MHC I western blot of orthotopic MiaPaca-2 pancreatic xenografts, with or without gemcitabine
# Format: in vivo, BALB/c nude mouse
# Conditions: gemcitabine only, 40 mg/kg every 3 days, orthotopic MiaPaca-2 tumors, FIG. 11
# Protocol: MiaPaCa-2 tumor cells was maintained in vitro as monolayer culture in DMEM medium supplemented with 10% fetal bovine serum, 2.5% horse serum, 100 Um′ penicillin and 100 μg/ml streptomycin, and 2 mM L-glutamine at 37° C. in an atmosphere of 5% CO2 in air. The tumor cells were routinely subcultured twice weekly by trypsin-EDTA treatment. Cells in an exponential growth phase will be harvested and counted for tumor inoculation. Before orthotopic implantation, 5×10^6 MiaPaca-2 cells in 50 μl PBS mixed with 50 μl Matrigel were inoculated subcutaneously at the right flank of each BALB/c nude mouse. Upon subcutaneous tumor size reaching about 500 mm^3, tumors were collected for orthotopic implantation.
# For orthotopic MiaPaca-2 xenografts, mice were anesthetized by intraperitoneal injection of pentobarbital sodium (50 mg/kg) before tumor inoculation. The abdominal skin was sterilized and laparotomy was performed to expose the pancreas. Each mouse was inoculated with a subcutaneous MiaPaca-2 tumor fragment (2-3 mm in diameter) in the subcapsular region of the pancreas for tumor development. The abdominal wall was closed using No. 6 suture and then sterilized with povidone iodine solution. The day of surgery was denoted as Day 0 (D0). The treatments with vehicle, gemcitabine only, PTD-TFAM only, and PTD-TFAM in combination with gemcitabine were started at 10 days post tumor fragment inoculation. […]
smiles,measurement,value
Nc1ccn([C@@H]2O[C@H](CO)[C@@H](O)C2(F)F)c(=O)n1 [Gemcitabine],MHC I expression,decreased
